Patent US7763580B2, “Methods for treating conditions associated with the accumulation of excess extracellular matrix” (University of Utah Research Foundation, priority 1999, dated 2010)

How the values were obtained:
[1] = system: anti-Thy 1 glomerulonephritis; assay: Proteinuria in anti-Thy 1 glomerulonephritis; format: in vivo, Sprague Dawley rats; settings: enalapril monotherapy
Description: (§1) These experiments were performed on male Sprague Dawley rats (200-250 g) obtained from the Sasco colony of Charles River Laboratories (Wilmington, Mass., USA). Animal housing and care were in accordance with the NIH Guide for the Care and Use of Laboratory Animals, NIH Publication No. 85-23, 1985. Animals were fed a normal protein diet (22% protein, Teklad No. 86 550, Teklad Premier Laboratory Diets, Madison, Wis., USA). Glomerulonephritis was induced by tail vein injection of 2.25 mg/Kg of the monoclonal anti-Thy 1.1 antibody OX-7 (NCCC, Biovest International Inc, Minneapolis, Minn., USA). OX-7 binds to a Thy 1-like epitope on the surface of mesangial cells causing complement-dependent cell lysis followed by fibrotic tissue repair (Bagchus et al., Lab Invest. 55:680-687 (1986)). Control animals were injected with similar volumes of phosphate-buffered saline (PBS).
Groups of 8 rats were assigned and treated as outlined in Table 2. Doses of enalapril above […] in drinking water are maximally effective in this model (Peters et al., Kidney Int. 54:1570-1580 (1998)). A dose of […] enalapril was used here. […]
The disease-induced increase in a variable was defined as the mean value for the disease control group minus the mean value of the normal control group. The percent reduction in disease severity in a treated group was calculated as: […]

[2] = system: anti-Thy 1 glomerulonephritis; assay: Glomerular ED1+ monocyte/macrophage count; format: in vivo, Sprague Dawley rats; settings: Enalapril alone, P<0.05
Description: as §1, with “(PBS). […] The intensity of glomerular staining of collagen I and fibronectin was evaluated according to a 0 to 4 scale, which has been described in detail previously (Yamamoto et al., Kidney Int. 49:461-469 (1996)). The number of cells per glomerulus, staining positive for the monocyte/macrophage marker ED1, were counted. Thirty glomeruli per sample were evaluated. The mean values with standard error values were calculated. […] The percent reduction in disease severity in a treated group was calculated as: […]” for “(PBS).”

CCOC(=O)[C@H](CCc1ccccc1)N[C@@H](C)C(=O)N1CCC[C@H]1C(=O)O [enalapril]
reduction of disease-induced increases in urinary protein [1]: 78%
reduction of number of ED1+ cells [2]: 62%
